Legend:
[1] = system: sheet-shaped human skeletal myoblast cell culture; assay: Cell survival rate confirmation test, preservative solution based on physiological saline solution (PI staining, flow cytometry); conditions: 2° C. to 8° C.; for cell survival rate: three days
Experimental: (§1) The sheet-shaped cell cultures were prepared using skeletal myoblast cells (with fibroblast cells contained therein) prepared from a human skeletal muscle by a usual or known method. A cell mixture of human skeletal myoblast cells and human fibroblast cells suspended in a 20% human serum-containing DMEM/F12 medium (Thermo Fisher Scientific Inc.) was seeded at 3.7×10^6 cells/well on a temperature-responsive culture dish (UpCell® 12 well Multi-well, CellSeed Inc.), and was then subjected to the sheet-formation cultivation at 37° C. under 5% CO2 for 12 to 26 hours. After the sheet-formation cultivation, the medium was removed, 700 μL of HBSS (+) (Thermo Fisher Scientific Inc.) which was chilled to 4° C. was added, and then the resultant was left to stand for 10 minutes. Then, gentle pipetting was conducted such as to detach the sheet-shaped cell culture completely.
After the sheet-shaped cell culture was completely detached, HBSS (+) was removed, and a fresh supply of room-temperature HBSS (+) was added to conduct rinsing. Such a washing step was repeated four times.
The sheet-shaped cell culture left to stand under the refrigerated conditions in (1) above was put to measurement of cell survival rate. After the sheet-shaped cell culture left to stand in the preservative solution for a predetermined period was dissociated with a trypsin-like protease, the cells were dispensed into a FACS tube to be 3.5×10^5 cells, followed by centrifugation, and the supernatant was discarded. To the resultant was added 3 ml of 0.5% BAS-containing PBS solution, and, after rinsing the cells by vortex, centrifugation was conducted, the supernatant was removed, and 500 μL of a propidium iodide (PI, Becton Dickinson) prepared to a final concentration of 0.6 μg/mL by use of a 0.5% BSA-containing PBS solution was added and mixed. […] The analysis was conducted using a flow cytometer (Becton Dickinson), and the proportion of PI-unstained cells contained in the whole cells admixed with PI was measured. […]

[2] = system: sheet-shaped human skeletal myoblast cell culture; assay: Cell survival rate confirmation test, preservative solution based on Hanks' balanced salt solution HBSS (+) (PI staining, flow cytometry); conditions: 2° C. to 8° C.
Experimental: as §1, with “completely. The thus detached sheet-shaped cell culture naturally shrank.” for “completely.”
After the sheet-shaped cell culture was completely detached, HBSS (+) was removed, and a fresh supply of room-temperature HBSS (+) was added to conduct rinsing. […]
The sheet-shaped cell culture left to stand under the refrigerated conditions in (1) above was put to measurement of cell survival rate. […] The analysis was conducted using a flow cytometer (Becton Dickinson), and the proportion of PI-unstained cells contained in the whole cells admixed with PI was measured. […]

Row | Compound | cell survival rate ([1]; 10 μM vitamin E in physiological saline solution) | cell survival rate ([1]; 100 μM vitamin E in physiological saline solution) | cell survival rate as compared to the case of no addition of edaravone ([1]; 1 μM or 10 μM edaravone in physiological saline solution, five days) | cell survival rate as compared to HBSS (+) not admixed with edaravone ([2]; 100 μM edaravone in HBSS (+), three days to seven days) | lowering in the number of live cells from three days to seven days of preservation, compared to edaravone-nonadded HBSS (+) ([2]; HBSS (+)-based edaravone-added preservative solution (100 μM))
1 | tocopherol [vitamin E] | approximately 65% | approximately 65% |  |  | 
2 | CC1=NN(c2ccccc2)C(=O)C1 [edaravone, 3-methyl-1-phenyl-2-pyrazolin-5-one] |  |  | increased | higher cell survival rate | restrained

Reference: patent US20190275088A1, “PRESERVATIVE SOLUTION FOR LIVE CELLS OR COMPOSITION CONTAINING LIVE CELLS” (TERUMO KABUSHIKI KAISHA, priority 2016, published 2019)
